Reference: ChEMBL document CHEMBL1128936, “Protein-ligand interactions. 6 nicotinic acetylcholine receptor agonist activity of isoquinoline alkaloids” (Bioorg Med Chem Lett, 1996)
Where “and” joins values, the source holds several entries; their conditions need not be identical. Equal entries are not always repeated.

Assays:
[1] = molecular target: T1, Acetylcholine receptor subunit delta (Torpedo californica) (UniProt P02718); test: Compound was tested for its binding affinity against nicotinic acetylcholine receptor by fluorimetry assay; settings: torpedo fuscomaculata
T1 sequence (whole entry): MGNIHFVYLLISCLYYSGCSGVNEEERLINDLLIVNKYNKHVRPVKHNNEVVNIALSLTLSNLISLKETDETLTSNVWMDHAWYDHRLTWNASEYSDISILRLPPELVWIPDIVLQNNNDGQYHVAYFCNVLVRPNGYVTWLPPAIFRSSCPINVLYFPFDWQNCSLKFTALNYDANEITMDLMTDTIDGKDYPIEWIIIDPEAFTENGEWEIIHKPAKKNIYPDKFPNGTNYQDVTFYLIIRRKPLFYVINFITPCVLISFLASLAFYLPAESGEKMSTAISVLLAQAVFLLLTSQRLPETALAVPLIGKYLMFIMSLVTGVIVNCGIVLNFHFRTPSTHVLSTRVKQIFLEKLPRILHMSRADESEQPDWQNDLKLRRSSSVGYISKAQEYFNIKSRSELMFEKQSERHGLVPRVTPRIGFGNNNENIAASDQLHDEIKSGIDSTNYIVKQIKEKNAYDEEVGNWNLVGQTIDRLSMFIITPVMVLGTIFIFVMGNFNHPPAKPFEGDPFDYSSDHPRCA

[2] = molecular target: T1, Acetylcholine receptor subunit delta (Torpedo californica); test: Compound was tested for its binding affinity against nicotinic acetylcholine receptor by spectrometry assay; settings: torpedo fuscomaculata

CC(=O)OCC[N+](C)(C)C
Kd1 [1]: 0.12 µM
Kd2 [1]: 2.3 µM
Kd1 [2]: 0.18 µM
Kd2 [2]: 3 µM

COc1ccc(Cc2nccc3cc(OC)c(OC)cc23)cc1OC
Bmax [1]: 0.27 µM
Kd1 [1]: 1.7 µM
Bmax [2]: 2.07 µM
Kd1 [2]: 2.4 µM
Kd2 [2]: 31 µM and 29 µM

COc1ccc2cc3[n+](cc2c1OC)CCc1cc2c(cc1-3)OCO2
Bmax [1]: 0.31 µM
Kd1 [1]: 0.77 µM
Bmax [2]: 2.14 µM
Kd1 [2]: 0.84 µM
Kd2 [2]: 27 µM and 34 µM

c1ccc2cnccc2c1
Bmax [1]: 0.31 µM
Kd1 [1]: 3.1 µM
Kd2 [1]: 49 µM
Bmax [2]: 1.86 µM
Kd1 [2]: 3.3 µM
Kd2 [2]: 51.6 µM

COc1cc2c3cc1Oc1cc(ccc1O)C[C@@H]1c4c(cc(OC)c(O)c4Oc4ccc(cc4)C[C@@H]3N(C)CC2)CC[N+]1(C)C
Kd1 [1]: 0.05 µM
Kd2 [1]: 11.4 µM
Kd1 [2]: 0.03 µM
Kd2 [2]: 8 µM
